As usually defined, the IC50 is the point on the concentration scale where inhibition reaches its midpoint.

For one assay, the system named is CTGF.
Assay: not given
As to conditions: MCT cells, co-treatment with LPA; cited from earlier work.
For `Cc1noc(-c2ccc(CSCCC(=O)O)cc2)c1NC(=O)OC(C)c1ccccc1Cl` (stereo not drawn) [Ki16425], the “LPA induction of CTGF expression” value is given as “almost completely suppressed”.

A further assay has as its system highly peritoneal metastatic pancreatic cancer cell line.
Assay: not given
Particulars: Yamada et al 2004; cited from earlier work.
In the case of `Cc1noc(-c2ccc(CSCCC(=O)O)cc2)c1NC(=O)OC(C)c1ccccc1Cl` (stereo not drawn) [Ki16425], the “LPA-induced and ascites-induced invasion activity” value was “blocked”.

For a further assay, the system named is pancreatic cancer cell lines.
Assay: not given
Particulars: Yamada et al 2004; cited from earlier work.
With `Cc1noc(-c2ccc(CSCCC(=O)O)cc2)c1NC(=O)OC(C)c1ccccc1Cl` (stereo not drawn) [Ki16425], the “in vitro migration in response to LPA and peritoneal fluid (ascites) from pancreatic cancer patients” value is listed as “effectively blocked”.

Another assay concerns UUO mice.
Assay: not given
As to conditions: compared with LPA1 (−/−) mice; cited from earlier work.
As to `Cc1noc(-c2ccc(CSCCC(=O)O)cc2)c1NC(=O)OC(C)c1ccccc1Cl` (stereo not drawn) [Ki16425], the “renal fibrosis profile of treated UUO mice” value is recorded as “closely resembled the profile of LPA1 (−/−) mice”.

The next assay deals with nerve-injured mice.
Assay: not given
Particulars: pretreatment, Inoue et al 2004; cited from earlier work.
Consider `C[C@@H](N)[C@H]1CC[C@H](C(=O)Nc2ccncc2)CC1` [Example Y-27632], for which the allodynia and hyperalgesia result was “completely abolished”.

The target in the next assay is T1, human LPA1 (Homo sapiens, UniProt Q92633).
T1 construct: expressed in transfected cells; host or cells: Chinese hamster ovary (CHO) cells
T1 sequence (Q92633 whole entry): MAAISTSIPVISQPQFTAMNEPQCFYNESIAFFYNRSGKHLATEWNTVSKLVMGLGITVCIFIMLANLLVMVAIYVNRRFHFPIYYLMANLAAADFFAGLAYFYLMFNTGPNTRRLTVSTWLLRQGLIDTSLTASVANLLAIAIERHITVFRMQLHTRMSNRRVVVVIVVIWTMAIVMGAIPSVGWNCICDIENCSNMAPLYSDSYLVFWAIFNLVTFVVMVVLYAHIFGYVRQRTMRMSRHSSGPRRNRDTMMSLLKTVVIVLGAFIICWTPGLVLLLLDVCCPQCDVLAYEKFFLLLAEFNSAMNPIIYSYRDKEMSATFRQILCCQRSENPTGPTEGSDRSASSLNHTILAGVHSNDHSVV
Nature of the assay: LPA1 functional antagonist assay (LPA-induced calcium flux). Format: cell-based. As to conditions: CHO cells overexpressing human LPA1; inhibition of calcium flux induced by 10 nM LPA; read-out: hLPA1 IC50. Here is the method:
The effectiveness of compounds of the present invention as LPA1 inhibitors can be determined in an LPA1 functional antagonist assay as follows:
Chinese hamster ovary cells overexpressing human LPA1 were plated overnight (15,000 cells/well) in poly-D-lysine coated 384-well microplates (Greiner bio-one, Cat#781946) in DMEM/F12 medium (Gibco, Cat#11039). Following overnight culture, cells were loaded with calcium indicator dye (AAT Bioquest Inc, Cat#34601) for 30 minutes at 37° C. The cells were then equilibrated to room temperature for 30 minutes before the assay. Test compounds solubilized in DMSO were transferred to 384 well non-binding surface plates (Coming, Cat#3575) using the Labcyte Echo acoustic dispense and diluted with assay buffer [1X HBSS with calcium/magnesium (Gibco Cat#14025-092), 20 mM HEPES (Gibco Cat#15630-080) and 0.1% fatty acid free BSA (Sigma Cat#A9205)] to a final concentration of 0.5% DMSO. Diluted compounds were added to the cells by FDSS6000 (Hamamatsu) at final concentrations ranging from 0.08 nM to 5 μM. and were then incubated for 20 min at room temperature at which time LPA (Avanti Polar Lipids Cat#857130C) was added at final concentrations of 10 nM to stimulate the cells. The compound IC50 value was defined as the concentration of test compound which inhibited 50% of the calcium flux induced by LPA alone. IC50 values were determined by fitting data to a 4-parameter logistic equation (GraphPad Prism, San Diego Calif.).
For the molecule `Cc1nc(-c2nnn(C)c2COC(=O)N(C)Cc2ccccc2)ccc1OC1CCCCC(C(=O)O)C1` (racemic) [Example 1, (±)-3-((6-(5-(((benzyl(methyl)carbamoyl)oxy)methyl)-1-methyl-1H-1,2,3-triazol-4-yl)-2-methylpyridin-3-yl)oxy)cycloheptane-1-carboxylic Acid], the IC50 turned out to be 16 nM. In the case of `CCc1cc(OCc2c(-c3ccc(OC4CCCCC(C(=O)O)C4)c(C)n3)nnn2C)ncn1` (racemic) [Example 15, (±)-3-((6-(5-(((6-ethylpyrimidin-4-yl)oxy)methyl)-1-methyl-1H-1,2,3-triazol-4-yl)-2-methylpyridin-3-yl)oxy)cycloheptane-1-carboxylic Acid], the IC50 worked out at 32 nM.

On to `Cc1nc(-c2nnn(C)c2NC(=O)O[C@H](C)c2ccccc2)ccc1OC1CCCCC(C(=O)O)C1` (mixture of isomers) [Example 22, (±)-3-((2-methyl-6-(1-methyl-5-((((R)-1-phenylethoxy)carbonyl)amino)-1H-1,2,3-triazol-4-yl)pyridin-3-yl)oxy)cycloheptane-1-carboxylic Acid], for which the concentration for half-maximal inhibition (IC50) was found to be 53 nM. `Cc1nc(-c2nnn(C)c2COC(=O)N(C)CC2CCC2)ccc1O[C@@H]1CCCC[C@@H](C(=O)O)C1` (single isomer, unassigned) [Example 2]: the half-inhibitory concentration (IC50) was 9.5 nM. For the molecule `Cc1nc(-c2nnn(C)c2COC(=O)N(C)CC2CCC2)ccc1O[C@@H]1CCCC[C@@H](C(=O)O)C1` (single isomer, unassigned) [Example 3], the half-inhibitory concentration (IC50) turned out to be 108 nM. With `Cc1nc(-c2nnn(C)c2COC(=O)N(C)CC2CCC2)ccc1O[C@@H]1CCCC[C@H](C(=O)O)C1` (single isomer, unassigned) [Example 4], the IC50 turned out to be 19 nM.

As for `Cc1nc(-c2nnn(C)c2COC(=O)N(C)CC2CCC2)ccc1O[C@@H]1CCCC[C@H](C(=O)O)C1` (single isomer, unassigned) [Example 5], the IC50 amounted to 296 nM.

Take `CCCN(C)C(=O)OCc1c(-c2ccc(OC3CCCCC(C(=O)O)C3)c(C)n2)nnn1C` (stereo not drawn) [Example 6]: the IC50 was found to be 117 nM. Same read-out and setting: the figure for `Cc1nc(-c2nnn(C)c2COC(=O)N(C)CC2CC2)ccc1OC1CCCCC(C(=O)O)C1` (stereo not drawn) [Example 7] is 11 nM; for `Cc1nc(-c2nnn(C)c2COC(=O)N(C)C2CCCC2)ccc1OC1CCCCC(C(=O)O)C1` (stereo not drawn) [Example 8] it is 11 nM; for `Cc1nc(-c2nnn(C)c2COC(=O)N(C)CC(C)C)ccc1OC1CCCCC(C(=O)O)C1` (stereo not drawn) [Example 9] it is 16 nM.

`Cc1nc(-c2nnn(C)c2COC(=O)N(C)CC(C)C)ccc1OC1CCCCC(C(=O)O)C1` (stereo not drawn) [Example 10]: the IC50 came out at 88 nM.

Turning to `Cc1nc(-c2nnn(C)c2COC(=O)N(C)CCC(C)C)ccc1OC1CCCCC(C(=O)O)C1` (stereo not drawn) [Example 11], the IC50 came out at 36 nM. Regarding `Cc1nc(-c2nnn(C)c2COC(=O)N(C)CCC(C)C)ccc1OC1CCCCC(C(=O)O)C1` (stereo not drawn) [Example 12], the half-inhibitory concentration (IC50) turned out to be 25 nM. Take `Cc1nc(-c2nnn(C)c2COC(=O)N(C)C2CCC2)ccc1OC1CCCCC(C(=O)O)C1` (stereo not drawn) [Example 13]: the concentration for half-maximal inhibition (IC50) worked out at 51 nM.

As to `Cc1nc(-c2nnn(C)c2COC(=O)N(C)C2CCC2)ccc1OC1CCCCC(C(=O)O)C1` (stereo not drawn) [Example 14], the concentration for half-maximal inhibition (IC50) turned out to be 20 nM. In the case of `Cc1nc(-c2nnn(C)c2COc2cc(C(C)(C)C)ncn2)ccc1OC1CCCCC(C(=O)O)C1` (stereo not drawn) [Example 16], the IC50 was determined as 154 nM. In the case of `Cc1nc(-c2nnn(C)c2COc2cc(C(C)(C)C)ncn2)ccc1OC1CCCCC(C(=O)O)C1` (stereo not drawn) [Example 17], the IC50 amounted to 325 nM.

On to `Cc1nc(-c2nnn(C)c2COc2cc(C(C)C)ncn2)ccc1OC1CCCCC(C(=O)O)C1` (stereo not drawn) [Example 18], for which the half-maximal inhibitory concentration (IC50) turned out to be 145 nM. `Cc1nc(-c2nnn(C)c2COc2cc(C(C)C)ncn2)ccc1OC1CCCCC(C(=O)O)C1` (stereo not drawn) [Example 19]: the concentration for half-maximal inhibition (IC50) worked out at 48 nM. Take `COc1cc(OCc2c(-c3ccc(OC4CCCCC(C(=O)O)C4)c(C)n3)nnn2C)ncn1` (stereo not drawn) [Example 20]: the 50% inhibitory concentration (IC50) was 67 nM.

Consider `COc1cc(OCc2c(-c3ccc(OC4CCCCC(C(=O)O)C4)c(C)n3)nnn2C)ncn1` (stereo not drawn) [Example 21], for which the half-inhibitory concentration (IC50) was determined as 26 nM. Consider `Cc1nc(-c2nnn(C)c2NC(=O)OCC2CC2)ccc1OC1CCCCC(C(=O)O)C1` (stereo not drawn) [Example 23], for which the half-maximal inhibitory concentration (IC50) was determined as 127 nM.

For `Cc1nc(-c2nnn(C)c2NC(=O)OCC(C)C)ccc1OC1CCCCC(C(=O)O)C1` (stereo not drawn) [Example 24], the IC50 came out at 91 nM.

Another assay has as its system human foetal lung fibroblasts.
Assay: not given
As to conditions: Tager et al. Nature Medicine 2008; cited from earlier work.
In the case of `Cc1noc(-c2ccc(CSCCC(=O)O)cc2)c1NC(=O)OC(C)c1ccccc1Cl` (stereo not drawn) [Ki16425], the “chemotaxis of human foetal lung fibroblasts induced by BAL from IPF patients” value is recorded as “blocked”.
